Measurements taken from patent publication US20210315893A1 (Galapagos NV, priority 2017, published 2021).

Legend:
[1] = target: T1, human GPCR sphingosine 1-phosphate receptor 2 (Homo sapiens, UniProt O95136); assay: S1PR2 antagonist Ca2+ flux assay; assay type: cell-based; conditions: antagonist mode, CHO-S1PR2 cells, S1P at EC80, Ca2+ fluorescence; read-out: S1P2 EC50 (nM), S1P2 antagonist EC50
T1 construct: host or cells: CHO
Procedure, shortened: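 CHO cells stably expressing human S1PR2, serum-starved 1 h, Fluo8-loaded; compound-evoked Ca2+ fluorescence read 3 min (agonist mode), then after 15 min S1P at EC80 added and read 3 min (antagonist mode). Max/baseline fluorescence ratios normalised to vehicle and S1P EC100 or EC50 controls; EC50 derived.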

[2] = target: T2, human GPCR sphingosine 1-phosphate receptor 1 (Homo sapiens, UniProt P21453); assay: S1PR1 selectivity Ca2+ flux assay (antagonist readout); assay type: cell-based; conditions: antagonist readout, CHO cells overexpressing human S1PR1 and Gq, S1P at EC80 (6 nM); read-out: S1P1 EC50 (nM), S1P1 antagonist EC50
T2 construct: host or cells: CHO
T2 sequence (P21453 whole entry): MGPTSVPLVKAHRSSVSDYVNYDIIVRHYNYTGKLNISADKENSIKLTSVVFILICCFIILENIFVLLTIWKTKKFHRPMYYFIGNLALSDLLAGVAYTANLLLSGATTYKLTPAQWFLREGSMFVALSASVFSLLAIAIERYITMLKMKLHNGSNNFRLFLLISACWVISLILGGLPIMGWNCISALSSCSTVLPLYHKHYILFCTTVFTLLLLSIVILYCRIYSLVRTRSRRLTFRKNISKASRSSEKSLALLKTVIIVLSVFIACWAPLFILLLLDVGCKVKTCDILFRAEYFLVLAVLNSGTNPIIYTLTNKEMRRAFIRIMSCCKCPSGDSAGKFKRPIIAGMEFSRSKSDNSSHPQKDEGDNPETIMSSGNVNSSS
Procedure, shortened: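 CHO cells stably overexpressing human S1PR1, starved 1 h in 0.1% FAF BSA medium, then Fluo 8 dye-loaded. Compound added, then after 15 min at 37 °C, S1P-evoked Ca2+ flux recorded. Maximal signal/background ratio normalized to controls as % inhibition; IC50 from four-parameter logistic fit.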

[3] = target: T3, human GPCR sphingosine 1-phosphate receptor 5 (Homo sapiens, UniProt Q9H228); assay: S1PR5 selectivity Ca2+ flux assay (antagonist readout); assay type: cell-based; conditions: CHO cells overexpressing human S1PR5 and Gq, agonist at EC80 (20 nM), read-out: S1P5 EC50 (nM), S1P5 antagonist EC50
T3 construct: host or cells: CHO
T3 sequence (Q9H228 whole entry): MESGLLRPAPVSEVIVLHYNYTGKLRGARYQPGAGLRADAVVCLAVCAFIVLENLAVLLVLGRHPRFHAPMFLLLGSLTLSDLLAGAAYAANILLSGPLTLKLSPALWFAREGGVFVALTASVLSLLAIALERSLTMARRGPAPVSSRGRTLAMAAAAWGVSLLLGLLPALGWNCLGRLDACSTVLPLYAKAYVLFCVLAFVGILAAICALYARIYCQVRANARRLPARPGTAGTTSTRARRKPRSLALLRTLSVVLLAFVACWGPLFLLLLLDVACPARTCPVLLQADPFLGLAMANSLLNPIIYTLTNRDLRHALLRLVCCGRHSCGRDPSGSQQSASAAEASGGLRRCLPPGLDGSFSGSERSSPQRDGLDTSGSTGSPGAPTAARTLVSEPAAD
Procedure, shortened: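 CHO cells stably coexpressing human S1PR5 and Gq were serum-starved, Fluo 8-loaded and preincubated 15 min at 37° C with compound. They were then stimulated at EC80 with an S1PR5-specific agonist, and calcium fluorescence was recorded for 3 min. Peak/baseline ratios were normalized to controls and fitted to a four-parameter IC50 equation.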

[4] = target: T4, S1PR2 (Homo sapiens, UniProt O95136); assay: S1PR2 binding assay (competition with radioactively labeled S1P, SpA); conditions: membranes from stable cell line over expressing S1PR2, SpA beads; read-out: S1P2 EC50 (nM), S1PR2 binding EC50
T4 construct: expressed in transfected cells
T4 sequence (O95136 whole entry): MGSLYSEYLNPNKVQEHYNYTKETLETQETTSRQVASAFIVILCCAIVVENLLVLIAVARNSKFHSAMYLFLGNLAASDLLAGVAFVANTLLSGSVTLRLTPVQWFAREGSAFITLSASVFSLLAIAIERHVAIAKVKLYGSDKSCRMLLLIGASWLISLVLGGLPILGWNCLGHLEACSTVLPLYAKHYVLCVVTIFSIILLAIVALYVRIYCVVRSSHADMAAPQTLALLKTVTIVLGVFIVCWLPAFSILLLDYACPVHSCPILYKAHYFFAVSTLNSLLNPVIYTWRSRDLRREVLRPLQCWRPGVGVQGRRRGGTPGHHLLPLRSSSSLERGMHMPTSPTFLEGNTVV
Procedure, shortened: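 Competition with [3H]S1P for membranes from a stable S1PR2-overexpressing cell line, 20 μg/well, captured on PVT-WGA SPA beads, in 20 mM Tris pH 7.5, 10 mM MgCl2, 100 mM NaCl, 0.4% fatty-acid-free BSA, 1 mM Na3VO4. 2 h at room temperature, then centrifugation and scintillation counting.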

[5] = tested on: HFL-1 cells; assay: IL-8 production assay (S1P induced IL-8); assay type: cell-based; conditions: Homo sapiens, HFL1; S1P (1 μM) induced IL-8 in HFL-1 cells, starvation medium without HSA; read-out: IL8 EC50
Procedure, shortened: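 HFL-1 human fetal lung fibroblasts were starved in F12K/1% FBS, then given compound for 1 h (10-point, 1/3 dilution, 30 μM top, 0.3% DMSO final). S1P was added at 1 μM final for 16–24 h at 37 °C, and secreted IL-8 in supernatant quantified by ELISA.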

[6] = tested on: HFL-1 cells; assay: IL8 assay in the presence of Human Serum Albumin; conditions: HFL1, read-out: HSA IL8 EC50
Experimental: To evaluate the influence of plasma protein binding of S1P as well as compound, the S1P induced IL-8 levelswereevaluatedin presence of Human Serum Albumin (HSA, equivalent to 40% human serum).
Human Fetal Lung cells (HFL-1) are seeded in 96 well plates in growth medium (F12K+10% heat inactivated FBS+1% Pen/strep). […] On day three, compounds are added (10 point serial dilution, 30 μM highest concentration, 1/3 dilution, 0.3% DMSO final) and plates are incubated for 1 h at 37° C., 5% CO2. Subsequently S1P at 5 μM final concentration is added and plates are incubated for 16 to 24 h at 37° C., 5% COafter which the supernatant was collected. IL-8 levels in the supernatant are determined with the IL-8 ELISA of R&D systems.

T1 sequence (O95136 whole entry): as above

| SMILES | EC50 [1] [nM] | EC50 [2] [nM] | EC50 [3] [nM] | EC50 [4] [nM] | EC50 [5] [nM] | EC50 [6] [nM] |
| --- | --- | --- | --- | --- | --- | --- |
| N#Cc1cc2[nH]c(Cc3nn(CC(=O)N4CCC(O)(C5CC5)C4)c(=O)c4ccccc34)nc2cc1OCC(F)F (stereo not drawn) [Compound 214, 2-[[3-[2-(3-cyclopropyl-3-hydroxy-pyrrolidin-1-yl)-2-oxo-ethyl]-4-oxo-phthalazin-1-yl]methyl]-6-(2,2-difluoroethoxy)-3H-benzimidazole-5-carbonitrile] | 34.6 | ≥ 19800 | 19800 | 124 | 7.04 | 33.4 |
| O=c1c2ccccc2c(Cc2nc3cc(Cl)c(OC(F)(F)F)cc3[nH]2)nn1C1CC1 [Compound 25, 4-[[5-chloro-6-(trifluoromethoxy)-1H-benzimidazol-2-yl]methyl]-2-cyclopropyl-phthalazin-1-one] | 218 | 4710 | 4790 | 565 | 836 | 10000 |
| CC1(O)CCN(C(=O)Cn2nc(Cc3nc4cc(OCC(F)F)c(C#N)cc4[nH]3)c3ccccc3c2=O)C1 (stereo not drawn) [Compound 201, 6-(2,2-difluoroethoxy)-2-[[3-[2-(3-hydroxy-3-methyl-pyrrolidin-1-yl)-2-oxo-ethyl]-4-oxo-phthalazin-1-yl]methyl]-3H-benzimidazole-5-carbonitrile] | 44.8 | 13200 | 19800 | 138 | 63.8 | 152 |
| N#Cc1cc2nn(Cc3nn(CC(=O)O)c(=O)c4ccccc34)cc2cc1OCC(F)F [compound 8, 2-[4-[[6-cyano-5-(2,2-difluoro-ethoxy)indazol-2-yl]methyl]-1-oxo-phthalazin-2-yl]acetic acid] | 10700 | ≥ 19800 | 19800 | 2490 | 610 | 9950 |
| N#Cc1cc2[nH]c(Cc3nn(CC(=O)O)c(=O)c4ccccc34)nc2cc1OCC1CC1 [compound 7, 2-[4-[[6-cyano-5-(cyclopropyl-methoxy)-1H-benzimidazol-2-yl]methyl]-1-oxo-phthalazin-2-yl]acetic acid] | 8.26 | ≥ 19800 | 19800 | 50.3 | 3.67 | 11.3 |
| O=C(O)Cn1nc(Cc2nc3cc(Cl)c(OCC4CC4)cc3[nH]2)c2c(c1=O)CCCC2 [Compound 117, 2-[4-[[5-chloro-6-(cyclopropylmethoxy)-1H-benzimidazol-2-yl]methyl]-1-oxo-5,6,7,8-tetrahydrophthalazin-2-yl]acetic acid] | 8.18 | 1540 | 13200 | 33.2 | 0.96 | 8.83 |
| N#Cc1cc2[nH]c(Cn3nc(CC(=O)N4CCOCC4)c(=O)c4ccccc43)nc2cc1OCC(F)F [Compound 49, 6-(2,2-Difluoro-ethoxy)-2-[3-(2-morpholin-4-yl-2-oxo-ethyl)-4-oxo-4H-cinnolin-1-ylmethyl]-3H-enzoimidazole-5-carbonitrile] | 32.8 | ≥ 19800 | 19800 | 92.7 | 31.7 | 47.1 |
| O=C(O)Cc1nn(Cc2cn3cc(OCC4CC4)c(Cl)cc3n2)c2cc(F)ccc2c1=O [Compound 101, 2-[1-[[7-chloro-6-(cyclopropylmethoxy)imidazo[1,2-a]pyridin-2-yl]methyl]-7-fluoro-4-oxo-cinnolin-3-yl]acetic acid] | 3.48 | ≥ 19800 | 19800 | 33.2 | 6.74 | 154 |
| O=C(Cc1nn(Cc2nc3cc(OCC4CC4)c(Br)cc3[nH]2)c2ccccc2c1=O)N1C[C@H](O)[C@@H](O)C1 [Compound 217, 1-[[6-bromo-5-(cyclopropylmethoxy)-1H-benzimidazol-2-yl]methyl]-3-[2-[(3S,4S)-3,4-dihydroxypyrrolidin-1-yl]-2-oxo-ethyl]cinnolin-4-one] | 2.23 | 698 | 19800 | 2.58 | 0.04 | 1.36 |
| CCOc1cc2[nH]c(Cc3nn(CC(=O)N4CCOCC4)c(=O)c4ccccc34)nc2cc1C#N [Compound 170, 6-ethoxy-2-[[3-(2-morpholino-2-oxo-ethyl)-4-oxo-phthalazin-1-yl]methyl]-1H-benzimidazole-5-carbonitrile] | 42.5 | ≥ 19800 | 19800 | 112 | 10.6 | 137 |
| N#Cc1ccc2c(=O)n(CC(=O)N3CCOCC3)nc(Cc3nc4cc(OCC(F)F)c(Cl)cc4[nH]3)c2c1 [Compound 153] | 28.5 | ≥ 19800 | 19800 | 246 | 27.4 | 254 |
| O=C(Cn1nc(Cn2cc3cc(OCC4CC4)c(Cl)cc3n2)c2ccccc2c1=O)NS(=O)(=O)C1CC1 [Compound 244, 2-[4-[[6-chloro-5-(cyclopropylmethoxy)indazol-2-yl]methyl]-1-oxo-phthalazin-2-yl]-N-cyclopropylsulfonyl-acetamide] | 8.29 | ≥ 19800 | 19800 | 136 | 21.3 | 808 |
| N#Cc1cc2nc(Cc3nn(C4CC4)c(=O)c4ccccc34)[nH]c2cc1OCC1CC1 [Compound 42, 6-(cyclopropylmethoxy)-2-[(3-cyclopropyl-4-oxo-phthalazin-1-yl)methyl]-1H-benzimidazole-5-carbonitrile] | 19.7 | ≥ 19800 | 19800 | 20.6 | 30.9 | 443 |
| CCOc1cc2[nH]c(Cc3nn(CC(=O)N4CCOCC4)c(=O)c4c3CCCC4)nc2cc1C#N [Compound 167, 6-ethoxy-2-[[3-(2-morpholino-2-oxo-ethyl)-4-oxo-5,6,7,8-tetrahydrophthalazin-1-yl]methyl]-1H-benzimidazole-5-carbonitrile] | 13.2 | ≥ 19800 | 19800 | 191 | 6.61 | 18.4 |
| CN(C)C1CCN(C(=O)Cn2nc(Cc3nc4cc(C#N)c(OCC(F)F)cc4[nH]3)c3c(c2=O)CCCC3)C1 (stereo not drawn) [Compound 204, 6-(2,2-difluoroethoxy)-2-[[3-[2-[3-(dimethylamino)pyrrolidin-1-yl]-2-oxo-ethyl]-4-oxo-5,6,7,8-tetrahydrophthalazin-1-yl]methyl]-1H-benzimidazole-5-carbonitrile] | 117 | ≥ 19800 | 19800 | 296 | 120 | 546 |
| COCCOc1cc2nc(Cc3nn(C4CCNC4)c(=O)c4ccccc34)[nH]c2cc1Cl (stereo not drawn) [Compound 67, 4-[[6-chloro-5-(2-methoxyethoxy)-1H-benzimidazol-2-yl]methyl]-2-pyrrolidin-3-yl-phthalazin-1-one] | 37.4 | ≥ 19800 | 19800 | 64.9 | 9.07 | 19.2 |
| O=c1c2ccccc2c(Cc2nc3cc(Cl)c(OCC(F)F)cc3[nH]2)nn1C1CC1 [Compound 32, 4-[[5-chloro-6-(2,2-difluoroethoxy)-1H-benzimidazol-2-yl]methyl]-2-cyclopropyl-phthalazin-1-one] | 19.3 | ≥ 19800 | 6610 | 245 | 95.7 | 2960 |
| N#Cc1cc2nn(Cc3nn(CC(=O)N4CCOCC4)c(=O)c4ccccc34)cc2cc1OCC1CC1 [Compound 209] | 194 | ≥ 19800 | 19800 | 235 | 123 | 382 |
| N#Cc1cc2[nH]c(Cc3nn(CC(=O)N4CC[C@H](O)C4)c(=O)c4ccccc34)nc2cc1OCC(F)F [compound 13, 6-(2,2-difluoro-ethoxy)-2-[[3-[2-[(3S)-3-hydroxy-pyrrolidin-1-yl]-2-oxo-ethyl]-4-oxo-phthalazin-1-yl]methyl]-3H-benzimidazole-5-carbonitrile] | 120 | ≥ 19800 | 19800 | 221 | 105 | 251 |
